Counter-ions that a name gives are not always drawn.

The IC50 is the concentration needed to halve the response being measured. A lower IC50 goes with greater potency.

In the experiment the target is PDE10A. The experiment in a line: Diaxonhit phosphodiesterase assay (TR-FRET, LANCE cAMP kit), PDE10A. The format is biochemical. As to the method: Diaxonhit Phosphodiesterase Assay (PDE10A and PDE4D3)
The PDE assay is based on the homogenous time-resolved fluorescence resonance energy transfer (TR-FRET) technology (LANCE® from Perkin Elmer). […] When there is PDE activity, resulting in the degradation of the cyclic nucleotide, the complex is not formed and a decrease in signal is observed.
The phosphodiesterase assay was developed using the LANCE® cAMP kit (PerkinElmer). The assay buffer contained HBSS with 5 mM HEPES, 0.1% BSA, and 1.5 mM MgCl2, pH 7.4. […] Chemical compounds were dissolved in DMSO (final concentration 2% (v/v)).
In a 384-well plate, 2 μL of the inhibitor and 3 μL PDE were added to the well, followed by the addition of 5 μl substrate biotinylated cAMP (1:5). After 60 min incubation at room temperature, 10 μL of assay detection mixture was added to the assay plate. After 1 h at room temperature, the signal was measured on EnVision™ (PerkinElmer).
(In general: Time-resolved FRET reads energy transfer from a long-lived donor to a nearby acceptor.)
Turning to `COc1cc2cncc(Cc3ccc4sccc4c3)c2cc1OC` [Compound 3, 4-(benzo[b]thiophen-5-ylmethyl)-6,7-dimethoxyisoquinoline hydrochloride], half-maximal inhibition (IC50) required 100 nM. For `COc1cc2cncc(Cc3ccc4cccc(OC)c4n3)c2cc1OC` [Compound 21, 2-((6,7-dimethoxyisoquinolin-4-yl)methyl)-8-methoxyquinoline dihydrochloride] the value was 46 nM. As for `COc1cc2c(Cc3cnc4ccccc4c3)cnc(C)c2cc1OC` [Compound 26, 3-((6,7-dimethoxy-1-methylisoquinolin-4-yl)methyl)quinoline dihydrochloride], the IC50 was found to be 49 nM. For `COc1cc2cncc(Cc3ccc4cccc(OCCO)c4n3)c2cc1OC` [Compound 42, 2-((2-((6,7-dimethoxyisoquinolin-4-yl)methyl)quinolin-8-yl)oxy)ethanol dihydrochloride] the value was 42 nM; for `COc1cc2cnc(C)c(Cc3cnc4ccccc4c3)c2cc1OC` [Compound 43, 3-((6,7-dimethoxy-3-methylisoquinolin-4-yl)methyl)quinoline dihydrocloride], 39 nM. The compound `CCCc1ncc(Cc2cc3cc(OC)ccc3nc2O)c2cc(OC)c(OC)cc12` [Compound 49, 3-((6,7-dimethoxy-1-propylisoquinolin-4-yl)methyl)-6-methoxyquinolin-2-ol dihydrochloride] yielded a concentration for half-maximal inhibition (IC50) of 63 nM.

`CCCc1ncc(Cc2cc3cc(C)ccc3nc2O)c2cc(OC)c(OC)cc12` [Compound 54, 3-((6,7-dimethoxy-1-propylisoquinolin-4-yl)methyl)-6-methylquinolin-2-ol dihydrochloride]: half-maximal inhibition (IC50) required 151 nM. For `CCCc1ncc(Cc2ccc3nc(C)ccc3c2)c2cc(OC)c(OC)cc12` [Compound 57, 6-((6,7-dimethoxy-1-propylisoquinolin-4-yl)methyl)-2-methylquinoline dihydrochloride] the value was 20 nM. For `CCCc1ncc(Cc2cc3cc(OC)ccc3nc2NCCNC(C)=O)c2cc(OC)c(OC)cc12` [Compound 76, N-(2-((3-((6,7-dimethoxy-1-propylisoquinolin-4-yl)methyl)-6-methoxyquinolin-2-yl)amino)ethyl)acetamide dihydrochloride], half-maximal inhibition (IC50) required 11 nM. For `CCc1ncc(Cc2ccc3cccc(O)c3n2)c2cc(OC)c(OC)cc12` [Compound 83, 2-((1-ethyl-6,7-dimethoxyisoquinolin-4-yl)methyl)quinolin-8-ol] the value was 11 nM; for `CCOC(=O)C(=O)Nc1cccc2ccc(Cc3cnc(CC)c4cc(OC)c(OC)cc34)nc12` [Compound 92, ethyl 2-((2-((1-ethyl-6,7-dimethoxyisoquinolin-4-yl)methyl)quinolin-8-yl)amino)-2-oxoacetate], 495 nM; for `CCc1ncc(Cc2ccc3cccc(CNS(N)(=O)=O)c3n2)c2cc(OC)c(OC)cc12` [Compound 94, N-((2-((1-ethyl-6,7-dimethoxyisoquinolin-4-yl)methyl)quinolin-8-yl)methyl)sulfamide], 13 nM. Compound `CCc1ncc(Cc2cnc3ccc(NC(=O)C(N)=O)cc3c2)c2cc(OC)c(OC)cc12` [Compound 98, N^1-(3-((1-ethyl-6,7-dimethoxyisoquinolin-4-yl)methyl)quinolin-6-yl)oxalamide] came in with an IC50 of 3.5 nM. Compound `CCc1ncc(Cc2cnc3ccc(N(C)S(C)(=O)=O)cc3c2)c2cc(OC)c(OC)cc12` [Compound 101, N-(3-((1-ethyl-6,7-dimethoxyisoquinolin-4-yl)methyl)quinolin-6-yl)-N-methylmethanesulfonamide] returned an IC50 of 43 nM. To `COc1cc2c(Cc3ccc4nc(C)ccc4c3)cnc(C)c2cc1OC` [Compound 105, 6-((6,7-dimethoxy-1-methylisoquinolin-4-yl)methyl)-2-methylquinoline dihydrochloride] belongs 4.3 nM. To `CCNc1nc2ccc(OC)cc2cc1Cc1cncc2cc(OC)c(OC)cc12` [Compound 113, 3-((6,7-dimethoxyisoquinolin-4-yl)methyl)-N-ethyl-6-methoxyquinolin-2-amine dihydrochloride] belongs 32 nM; to `COC(=O)c1ccc(-c2nc3cc(Cc4cncc5cc(OC)c(OC)cc45)ccc3o2)cc1` [Compound 115, methyl 4-(5-((6,7-dimethoxyisoquinolin-4-yl)methyl)benzo[d]oxazol-2-yl)benzoate], 61 nM; to `CCCc1ncc(Cc2ccc3cccc(OCC(=O)NC4CC4)c3n2)c2cc(OC)c(OC)cc12` [Compound 126, N-cyclopropyl-2-((2-((6,7-dimethoxy-1-propylisoquinolin-4-yl)methyl)quinolin-8-yl)oxy)acetamide], 71 nM. `CCOC(=O)COc1cccc2ccc(Cc3cnc(CC)c4cc(OC)c(OC)cc34)nc12` [Compound 128, ethyl 2-((2-((1-ethyl-6,7-dimethoxyisoquinolin-4-yl)methyl)quinolin-8-yl)oxy)acetate] returned an IC50 of 59 nM.

The compound `CCCc1ncc(Cc2cc3cc(OC)ccc3nc2NC)c2cc(OC)c(OC)cc12` [Compound 129, 3-((6,7-dimethoxy-1-propylisoquinolin-4-yl)methyl)-6-methoxy-N-methylquinolin-2-amine] displayed an IC50 of 9.5 nM. As to `CCCc1ncc(Cc2cnc3ccc(OCC(N)=O)cc3c2)c2cc(OC)c(OC)cc12` [Compound 144, 2-((3-((6,7-dimethoxy-1-propylisoquinolin-4-yl)methyl)quinolin-6-yl)oxy)acetamide], half-maximal inhibition (IC50) required 6.5 nM. As to `CCCc1ncc(Cc2ccc3oc(=O)n(CC(N)=O)c3c2)c2cc(OC)c(OC)cc12` [Compound 148, 2-(5-((6,7-dimethoxy-1-propylisoquinolin-4-yl)methyl)-2-oxobenzo[d]oxazol-3(2H)-yl)acetamide], half-maximal inhibition (IC50) required 87 nM. On to `COc1cc2c(Cc3ccc4cccc(N)c4n3)cnc(C)c2cc1OC` [Compound 152, 2-((6,7-dimethoxy-1-methylisoquinolin-4-yl)methyl)quinolin-8-amine], for which the IC50 was found to be 13 nM. To `COc1cc2cncc(Cc3cnc4ccc(O)c(C(F)(F)F)c4c3)c2cc1OC` [Compound 161, 3-((6,7-dimethoxyisoquinolin-4-yl)methyl)-5-(trifluoromethyl)quinolin-6-ol] belongs 6 nM; to `CCCc1ncc(Cc2cnc3ccc(OP(=O)(O)O)cc3c2)c2cc(OC)c(OC)cc12` [Compound 171, sodium 3-((6,7-dimethoxy-1-propylisoquinolin-4-yl)methyl)quinolin-6-yl phosphate], 62 nM.

The record behind these values is US9902710B2, “Substituted 6, 7-dialkoxy-3-isoquinoline derivatives as inhibitors of phosphodiesterase 10 (PDE 10A)” (Allergan, Inc., priority 2013, dated 2018).
